The values that follow come from patent publication US10358456B2, “Platinum(II) complexes with selone ligands and method of use” (KING FAHD UNIVERSITY OF PETROLEUM AND MINERALS, priority 2017, dated 2019).

Assay [1] has as its system HeLa (cervical cancer cells). The assay can be described thus: MTT assay for anticancer activity (in vitro cytotoxicity), HeLa. The format is cell-based, human. The note with it: for IC50: MTT, incubated 24 h with compound, read-out: IC50 ± SEM, HeLa (concentration causing 50% reduction in cell viability). The protocol:
(§1) Cell Cultures: Human Cervical cancer HeLa and Brest cancer cell lines MCF-7 were grown in Dulbecco's modified Eagle's medium (DMEM) supplemented with 10% Fetal Bovine Serum (FBS), and 1% penicillin (10,000 units), streptomycin (10 mg), in 74 cm2 flask and incubated until 80% confluences obtained in humidified environment of, 5% CO2, 95% air, 37° C.
(§2) Complexes 1-7 and cisplatin (positive control) at 0.195 μM, 0.39 μM, 0.781 μM, 1.56 μM, 3.125 μM, 6.25 μM, 12.5 μM, 25 μM, and 50 μM concentrations were prepared in DMEM. Cancer cells were seeded and maintained in quadruplicate in a 96-well tissue culture plate at 5×10^4 cells per well in 200 μl of same medium. The cancer cells were incubated 24 hours before the treatment. All compounds were dissolved in 50% DMSO. Therefore, DMSO was used as a negative control. The final DMSO concentration, in each well, was less than 0.1%. The cancer cells were treated with the synthesized compounds 1-8 along with the cisplatin and the resultant cultures were incubated for 24 h. The medium of wells was discarded and 100 μL DMEM containing MTT (3-(4,5-dimethylthiazol-2-yl)-2,5-diphenyltetrazolium bromide) (5 mg/mL) was added to the wells and incubated in a CO2 incubator at 37° C. in the dark for 4 hrs. After incubation, a purple colored formazan (artificial chromogenic dye, a product of the reduction of water insoluble tetrazolium salts e.g., MTT by dehydrogenases and reductases) in the cells is produced and appeared as dark crystals in the bottom of the wells. The medium of culture was discarded from each well carefully to avoid disruption of the monolayer. 100 μL of isopropanol was added in each well. The solution was thoroughly mixed in the wells to dissolve the formazan crystals which ultimately results into a purple solution. The absorbance of the 96-well plate was measured at 570 nm with Mithras2LB943 against reagent blank. All data presented are mean±standard deviation.
(§3) To examine the possible anticancer effect of cisplatin and the prepared complexes, two human tumor cell lines, HeLa (cervical cancer cells) and MCF7 (breast cancer cells) were used. The results of in vitro cytotoxic activity are expressed as IC50 (concentration causing 50% reduction in cell viability) and are presented in Table 5.
Background: Formazan colour is commonly taken as a measure of viable cells.

Assay [2] relates to MCF7 (breast cancer cells). The experiment in a line: MTT assay for anticancer activity (in vitro cytotoxicity), MCF7. The format is cell-based, human. The following applies: for IC50: MTT, incubated 24 h with compound, read-out: IC50 ± SEM, MCF7 (concentration causing 50% reduction in cell viability). The protocol:
as §1, §2, §3

For `NC(N)=[Se][Pt]([Cl])([Cl])[Se]=C(N)N` [(1), Pt(SeU)2Cl2], the IC50 worked out at 19.78 ± 0.13 µM in assay [1] and 11.11 ± 0.05 µM in assay [2].
Consider `[Cl][Pt]([Cl])(=[Se]=C1NCCN1)=[Se]=C1NCCN1` [(2), Pt(ImSe)2Cl2], for which, in assay [2] (in words), the “activity against MCF7 cells, compared among the complexes and with cisplatin” value is “most active”.
Turning to `CCN1CCNC1=[Se][Pt]([Cl])([Cl])[Se]=C1NCCN1CC` [(3), Pt(EtImSe)2Cl2], the IC50 is 17.73 ± 0.14 µM in assay [1] and 8.59 ± 0.07 µM in assay [2].
For `CCCN1CCNC1=[Se][Pt]([Cl])([Cl])[Se]=C1NCCN1CCC` [(4), Pt(PrImSe)2Cl2], in that order: 12.9 ± 0.16 µM and 18.64 ± 0.03 µM.
Turning to `CC(C)N1CCNC1=[Se][Pt]([Cl])([Cl])[Se]=C1NCCN1C(C)C` [(5), Pt(i-PrImSe)2Cl2], the IC50 came out at 14 ± 0.16 µM in assay [1] and 8.3 ± 0.06 µM in assay [2].
As to `[Cl][Pt]([Cl])([Se]=C1NCCCN1)[Se]=C1NCCCN1` [(6), Pt(DiazSe)2Cl2], the IC50 in assay [1] turned out to be 11.3 ± 0.2 µM; in assay [2], 12.27 ± 0.01 µM. For the same compound, the “antiproliferative potency in HeLa cells, compared among the complexes and with cisplatin” value in assay [1] (in words) is recorded as “strongest antiproliferative potency”.
With `[Cl][Pt]([Cl])([Se]=C1NCCCCN1)[Se]=C1NCCCCN1` [(7), Pt(DiapSe)2Cl2], the results for the IC50 in assay [1] and in assay [2] were 11.5 ± 0.22 µM and 16.68 ± 0.02 µM, respectively.
Take `N.N.[Cl][Pt][Cl]` [Cisplatin, cisplatin, reference compound]: the IC50 in assay [1] turned out to be 21.4 ± 0.73 µM; in assay [2] it was 8.98 ± 0.07 µM.
